Experimental data as given in publication PMC12795676, “Integrin α5β1 mediates the inhibitory effects of vasoinhibin on angiogenesis and vascular permeability [drawing 1]” (The Journal of Biological Chemistry, 2025).
Entries after “also recorded” stand apart in the source; their conditions may differ. Residues, ends and D or L forms follow the SMILES beside them. No end group written: not given here. *: point of attachment. Biotin = O=C1N[C@H]2[C@H](CS[C@H]2CCCCC(=O)*)N1

Columns and labels:
integrin α5β1 [1] = biological target: T1, integrin α5β1 (Homo sapiens, UniProt P05556+P08648); test: ELISA, binding to immobilized integrin α5β1; details: dose-dependent, plates coated with 2 μg mL^−1
T1 construct: purchased Bio-Techne
Protocol: (§1) Vi ([49]) and its mutants were produced as reported ([14]). HUVECs were cultured as reported ([14], [50]).
(§2) Plates coated with 2 μg mL^−1 integrin α5β1, PAI-1, or PAI-1-uPA complex (37 °C, 10 min) were incubated with B-Vi45-51, Vi, or 100 nM ViH46A, ViR48A, or ViH46A/R48A. Competition used excess Src, alanine mutants, or THGR peptides. Detection used horseradish peroxidase antibodies and 3,3′,5,5′-tetramethylbenzidine.

integrin α5 = test: Pull-down and Western blot, integrin α5; format: binding, human (HUVEC lysates)
Protocol: (§3) To test whether Vi’s HGR motif binds integrin α5β1, human umbilical vein endothelial cells (HUVECs) were treated with a biotinylated peptide comprising residues 45 to 51 (B-Vi45-51) and subjected to pull-down and Western blot.
(§4) HUVECs treated with 500 nM B-Vi45-51, 20 ng mL^−1 bFGF, and 25 ng mL^−1 VEGF for 1 h were lysated in radioimmunoprecipitation assay, sonicated, incubated 30 min at 37 °C, and pulled down with Dynabeads Streptavidin T1 (Thermo). Eluates were analyzed by a Western blot for integrin α5, PAI-1, and uPAR.

PAI-1 [2] = test: Pull-down and Western blot, PAI-1; format: binding, human (HUVEC lysates); details: HUVEC lysates; 500 nM B-Vi45-51, 1 h; Western blot
Protocol: as §3, §4

PAI-1-uPA complex = PAI-1-uPA complex (Homo sapiens, UniProt P00749+P05121); test: ELISA, binding to immobilized PAI-1-uPA complex; details: for Binding to immobilized PAI-1-uPA complex: plates coated with 2 μg mL^−1
Protocol: as §2

uPAR = test: Pull-down and Western blot, uPAR; format: binding, human (HUVEC lysates); details: HUVEC lysates; 500 nM B-Vi45-51, 1 h; Western blot
Protocol: as §3, §4

[3] = system: HUVEC adhesion to fibronectin; test: HUVEC adhesion to fibronectin; format: cell-based, human; details: 1 h
Protocol: HUVECs (43,000 cells cm^−2) were added and incubated at 37 °C for 1 h. Cells were washed twice and quantified by 3-(4,5-dimethylthiazol-2-yl)-2,5-diphenyltetrazolium bromide.

endothelial cells [4] = details: cited from earlier work
endothelial cells [5] = details: cited from earlier work; remark: listed apart in the source
integrin α5β1 [6] = biological target: T1, integrin α5β1; test: Competitive ELISA, B-Vi45-51 binding to immobilized integrin α5β1; details: excess competitor
Protocol: as §1, §2

PAI-1 [7] = biological target: T2, PAI-1 (Homo sapiens, UniProt P05121); details: cited from earlier work
Text: We recently identified two distinct functional motifs in the Vi molecule: the HGR and the HNLSSEM motifs. […] These discrep ...

integrin α5β1 [8] = biological target: T1, integrin α5β1; test: Competitive ELISA, Vi binding to integrin α5β1; details: excess competitor
Protocol: as §1, §2

[9] = system: Matrigel plug vascularization (Pecam1); test: Matrigel plug assay; format: in vivo, male C57BL/6 mice; details: mice, s.c. plugs, 100 nM Vi or Vi45-51, bFGF + VEGF, 20 μg mL^−1 anti-α5β1; 7 days; Pecam1 mRNA
Protocol: As previously described ([14], [53], [54]), 6-week-old male C57BL/6 mice were subcutaneously injected with two 0.5 ml plugs supplemented with 300 ng mL^−1 bFGF and 100 ng mL^−1 VEGF, 100 nM Vi or Vi45-51, and 20 μg mL^−1 anti-integrin α5β1 antibody. After 7 days, plugs were collected, and Pecam1, relative to GAPDH, was quantified by quantitative PCR as reported ([14]). Procedures followed institutional ethical approval (Bioethics Committee, Instituto de Neurobiología, UNAM) and were in accordance with the Guide for the Care and Use of Laboratory Animals (http://www.ncbi.nlm.nih.gov/books/NBK54050/).

HUVECs [10] = test: Tube formation on Matrigel; format: cell-based, human; details: 100 nM Vi or Vi45-51, 6 h; shITGA5 HUVEC vs WT
Protocol: HUVEC tubular network formation was evaluated as reported ([14], [51]). HUVECs were seeded on Matrigel and treated with 100 nM Vi or Vi45-51 for 6 h. Micrographs were analyzed by Angiogenesis Analyzer ([52]).

HUVECs [11] = test: Matrigel invasion; format: cell-based, human; details: 100 nM Vi or Vi45-51, 16 h; shITGA5 HUVEC vs WT
Protocol: As reported ([14]), HUVECs on Matrigel-coated Transwells were treated with 100 nM of Vi45-51 or Vi. After 16 h, invading cells were counted.

HUVEC monolayers = test: Endothelial permeability (TEER); format: cell-based, human; details: 100 nM Vi or Vi45-51 for 1 h, then 50 ng mL^−1 VEGF; TEER 120 min; n = 6
Protocol: HUVECs were grown to confluency on 0.4 μm pore Transwells, treated with 100 nM Vi45-51 or Vi for 1 h, then stimulated with 50 ng mL^−1 VEGF. Transendothelial electrical resistance was recorded for 120 min using the EVOM2 meter (World Precision Instruments).

HUVECs [12] = test: Endothelial cell proliferation (EdU); format: cell-based, human; details: 24 h; for Effect of ITGA5 knockdown on inhibition of endothelial proliferation: 100 nM Vi or Vi45-51, bFGF + VEGF, shITGA5 HUVEC vs WT; for Effect of anti-α5β1 antibody on inhibition of VEGF + bFGF-induced proliferation: 100 nM Vi or Vi45-51, 20 μg mL^−1 anti-α5β1
Protocol: As reported ([14]), HUVECs were serum-starved for 8 h and treated with 100 nM Vi45-51 or Vi, bFGF + VEGF, and 20 μg mL^−1 anti-α5β1 antibody in 20% fetal bovine serum for 24 h. EdU incorporation was detected with Azide Fluor 545 (Sigma).

PAI-1 knockout mice = details: cited from earlier work
Text: The HGR motif is the sole antiangiogenic determinant of Vi, as its mutation leads to the loss of Vi’s antiangiogenic function ([14]). Given that Vi binds to integrin α5β1 via its HGR motif and that knockdown of ITGA5 abolishes the effects of Vi on endothelial cell proliferation, invasion, vascular permeability, and tube formation in vitro, while an antibody against integrin α5β1 suppresses the antiangiogenic effect of Vi in the in vivo Matrigel plug assay, integrin α5β1 emerges as the binding partner mediating the antiangiogenic activity of Vi. Integrin α5β1 is critical for angiogenesis ([16]) ...

PAI-1 [13] = biological target: T2, PAI-1; test: ELISA, binding to immobilized PAI-1
Protocol: as §2

HUVECs [14] = test: Apoptosis (Cell Death Detection ELISA); format: cell-based, human; details: 100 nM Vi, 24 h; shITGA5 HUVEC vs WT
Protocol: As reported ([13]), HUVEC were treated with 100 nM Vi or Vi45-51 for 24 h, and apoptosis was analyzed using the Cell Death Detection ELISA kit (Roche).

Compound: CC[C@H](C)[C@H](NC(=O)[C@H](Cc1ccccc1)NC(=O)CNC(=O)[C@H](CCCNC(=N)N)NC(=O)CNC(=O)[C@H](Cc1c[nH]cn1)NC(=O)[C@@H](NC(=O)CCCC[C@@H]1SC[C@@H]2NC(=O)N[C@@H]21)[C@@H](C)O)C(=O)O [B-Vi45-51] (Biotin-THGRGFI-OH; N-terminus and C-terminus assumed)
- Binding to immobilized integrin α5β1 (integrin α5β1 [1]): dose-dependent binding
- Pull-down of integrin α5 (integrin α5; HUVEC lysates, 500 nM B-Vi45-51, 1 h, Dynabeads Streptavidin T1, Western blot, ∼145 kDa): Integrin α5 was precipitated
- Effect of VEGF + bFGF on pull-down of integrin α5 (integrin α5; HUVECs, 500 nM B-Vi45-51, 20 ng mL^−1 bFGF, 25 ng mL^−1 VEGF, 1 h): did not affect binding
- Pull-down of PAI-1 (PAI-1 [2]): failed to pull down
- Binding to immobilized PAI-1-uPA complex (PAI-1-uPA complex): not to PAI-1 or the PAI-1-uPA complex
- Pull-down of uPAR (uPAR): failed to pull down

Compound: N=C(N)NCCC[C@H](N)C(=O)NCC(=O)N[C@@H](CC(=O)O)C(=O)O [RGD, reference compound]
- IC50 ([3]; dose–response, fibronectin 1 μg cm^−2, 37 °C, MTT read-out, nonlinear regression (r^2 > 0.8), at least three independent experiments, read-out: IC50, inhibition of HUVEC adhesion to fibronectin): 61.3 nM

Compound: Ac-PHSCN-NH2 [ATN-161, PHSRN-based peptide (Ac-PHSCN-NH2), reference compound]
- Disruption of endothelial adhesion (endothelial cells [4]): disrupt endothelial adhesion
- Induction of apoptosis (anoikis) (endothelial cells [5]): induce apoptosis through anoikis

Compound: H46A: alanine-scanning mutant peptide, alanine substitution at H46 (TAGRGFI)
- Inhibition of B-Vi45-51 binding to integrin α5β1 (integrin α5β1 [6]): abolished inhibition

Compound: HNLSSEM [HNLSSEM motif]
- Binding to PAI-1 (literature) (PAI-1 [7]): mediates Vi binding to PAI-1
- Apoptosis induction via uPAR-dependent mechanism (endothelial cells [5]): induces endothelial apoptosis through a uPAR-dependent mechanism

Compound: R48A: Vi45-51 mutated by alanine in R48 (THGAGFI)
- Inhibition of B-Vi45-51 binding to integrin α5β1 (integrin α5β1 [6]): abolished inhibition
- HUVEC adhesion to fibronectin, dose–response ([3]; fibronectin 1 μg cm^−2, 37 °C): did not

Compound: THGR [HGR-containing tetrapeptide THGR]
- Inhibition of Vi binding to integrin α5β1 (integrin α5β1 [8]): blocked Vi–integrin interaction

Compound: THGRGFI [Vi45-51]
- Effect of anti-α5β1 antibody on inhibition of Matrigel plug vascularization [9]: prevented the inhibitory effects
- Effect of ITGA5 knockdown on inhibition of tube formation (HUVECs [10]): abolished the inhibitory effects
- Effect of ITGA5 knockdown on inhibition of invasion (HUVECs [11]): abolished the inhibitory effects
- Effect of ITGA5 silencing on inhibition of VEGF-induced permeability (HUVEC monolayers): ablated the inhibitory effect
- Inhibition of B-Vi45-51 binding to integrin α5β1 (integrin α5β1 [6]): inhibited B-Vi45-51 binding
- Effect of ITGA5 knockdown on inhibition of endothelial proliferation (HUVECs [12]): abolished the inhibitory effects
- Effect of anti-α5β1 antibody on inhibition of VEGF + bFGF-induced proliferation (HUVECs [12]): prevented the inhibitory effects
- HUVEC adhesion to fibronectin at 1 μM ([3]; 1 μM, fibronectin 1 μg cm^−2, 37 °C, Fig. 4C): enhanced fibronectin-mediated adhesion
- EC50 [3]: 4.55 nM
- HUVEC adhesion to fibronectin, dose–response ([3]; fibronectin 1 μg cm^−2, 37 °C): increased the adhesion in a dose-dependent manner

Compound: cilengitide [reference compound]
- Disruption of endothelial adhesion (endothelial cells [4]): disrupt endothelial adhesion
- Induction of apoptosis (anoikis) (endothelial cells [5]): induce apoptosis through anoikis

Compound: vasoinhibin [Vi]
- Binding to immobilized integrin α5β1 (integrin α5β1 [1]): bound all three
- Antiangiogenic and antitumor effects in PAI-1 knockout mice (PAI-1 knockout mice): lost in PAI-1 knockout mice
- Effect of anti-α5β1 antibody on inhibition of Matrigel plug vascularization [9]: prevented the inhibitory effects
- Effect of ITGA5 knockdown on inhibition of tube formation (HUVECs [10]): abolished the inhibitory effects
- Effect of ITGA5 knockdown on inhibition of invasion (HUVECs [11]): abolished the inhibitory effects
- Effect of antibodies against integrin α5β1 on Vi-induced endothelial cell apoptosis (endothelial cells [5]): partially prevented
- Kd (PAI-1 [13]; immobilized PAI-1, at least three independent experiments): 528 nM
- Binding to immobilized PAI-1 (PAI-1 [13]; plates coated with 2 μg mL^−1): bound all three
- Kd (PAI-1-uPA complex; immobilized PAI-1-uPA complex, at least three independent experiments): 406 nM
- Binding to immobilized PAI-1-uPA complex (PAI-1-uPA complex): bound all three
- Effect of ITGA5 silencing on inhibition of VEGF-induced permeability (HUVEC monolayers): ablated the inhibitory effect
- Effect of ITGA5 knockdown on Vi-induced apoptosis (HUVECs [14]): did not abolish Vi-induced apoptosis; in fact, it was even slightly increased; also recorded: did not prevent, but slightly enhanced
- Effect of ITGA5 knockdown on inhibition of endothelial proliferation (HUVECs [12]): abolished the inhibitory effects
- Effect of anti-α5β1 antibody on inhibition of VEGF + bFGF-induced proliferation (HUVECs [12]): prevented the inhibitory effects
